From US7045528B2, “Benzofused heterozryl amide derivatives of thienopyridines useful as therapeutic agents, pharmaceutical compositions including the same, and methods for their use” (Agouron Pharmaceuticals, Inc., priority 2002, dated 2006) come the findings set out here.

Assay [1] addresses T1, PDGFRβ (Homo sapiens, UniProt P09619).
T1 construct: expressed in transfected cells; host or cells: porcine aorta endothelial (PAE)-PDGFRβ cells
Description: PAE-PDGFRβ phosphorylation in PAE-PDGFRB cells assay. The class given is cell-based. As to conditions: PAE cells overexpressing human PDGFRβ, PDGF-BB stimulated; read-out: PAE PDGFR autophos IC50 (nM) AVG. Summed up: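 PAE cells overexpressing human PDGFRβ, serum-starved 16 h (0.1% FBS), were given compound for 1 h at 37 °C (0.5% DMSO) and then stimulated with 1 μg/mL PDGF-BB plus 2 mM Na3VO4 for 8 min. Receptor autophosphorylation was read by capture ELISA (HRP-PY20, TMB, 450 nm); IC50 from 4-parameter fit.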

Assay [2] deals with Huvec. As to the kind of experiment: bFGF Huvec proliferation. The class given is cell-based, human. As to conditions: Homo sapiens, HUVEC.
Assay [3] deals with T2, KDR (VEGFR2) (Homo sapiens, UniProt P35968).
T2 construct: expressed in transfected cells; host or cells: porcine aorta endothelial (PAE)-KDR cells
As to the kind of experiment: KDR (VEGFR2) phosphorylation in PAE-KDR cells assay. As to conditions: PAE cells overexpressing human KDR, VEGF stimulated; read-out: PAE KDR autophos IC50 (nM) AVG. The class given is cell-based. The protocol:
KDR (VEGFR2) Phosphorylation in PAE-KDR Cells Assay
This assay determines the ability of a test compound to inhibit the autophosphorylation of KDR in porcine aorta endothelial (PAE)-KDR cells. PAE cells that overexpress human KDR were used in this assay. The cells were cultured in Ham's F12 media supplemented with 10% fetal bovine serum (FBS) and 400 ug/mL G418. Thirty thousands cells were seeded into each well of a 96-well plate in 75 μL of growth media and allowed to attach for 6 hours at 37° C. Cells were then exposed to the starvation media (Ham's F12 media supplemented with 0.1% FBS) for 16 hours. After the starvation period was over, 10 μL of test agent in 5% DMSO in starvation media were added to the test wells and 10 μL of the vehicle (5% DMSO in starvation media) were added into the control wells. The final DMSO concentration in each well was 0.5%. Plates were incubated at 37° C. for 1 hour and the cells were then stimulated with 500 ng/ml VEGF (commercially available from R & D System) in the presence of 2 mM Na3VO4 for 8 minutes. The cells were washed once with 1 mm Na3VO4 in HBSS and lysed by adding 50 μL per well of lysis buffer. One hundred μL of dilution buffer were then added to each well and the diluted cell lysate was transferred to a 96-well goat ant-rabbit coated plate (commercially available from Pierce) which was pre-coated with Rabbit anti Human Anti-flk-1 C-20 antibody (commercially available from Santa Cruz). The plates were incubated at room temperature for 2 hours and washed seven times with 1% Tween 20 in PBS. HRP-PY20 (commercially available from Santa Cruz) was diluted and added to the plate for a 30-minute incubation. Plates were then washed again and TMB peroxidase substrate (commercially available from Kirkegaard & Perry) was added for a 10-minute incubation. One hundred μL of 0.09 N H2SO4 was added to each well of the 96-well plates to stop the reaction. Phosphorylation status was assessed by spectrophotometer reading at 450 nm. IC50 values were calculated by curve fitting using a four-parameter analysis.

Assay [4] relates to human umbilical vein endothelial cells (HUVEC). As to the kind of experiment: HUVEC+VEGF proliferation assay. The format is cell-based. The settings on record: Homo sapiens, HUVEC; VEGF 6 ng/mL, 72 h, MTT. The method, boiled down:
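Exponentially growing passage 3–4 HUVEC were starved 24 h in F12K + 1% FBS, given compound (0.1% final DMSO) 1 h before 6 ng/mL final VEGF, then cultured 72 h. Proliferation was read as MTT dye reduction (4 h exposure), absorbance at 595 nm.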

T2 sequence (P35968 20-1356): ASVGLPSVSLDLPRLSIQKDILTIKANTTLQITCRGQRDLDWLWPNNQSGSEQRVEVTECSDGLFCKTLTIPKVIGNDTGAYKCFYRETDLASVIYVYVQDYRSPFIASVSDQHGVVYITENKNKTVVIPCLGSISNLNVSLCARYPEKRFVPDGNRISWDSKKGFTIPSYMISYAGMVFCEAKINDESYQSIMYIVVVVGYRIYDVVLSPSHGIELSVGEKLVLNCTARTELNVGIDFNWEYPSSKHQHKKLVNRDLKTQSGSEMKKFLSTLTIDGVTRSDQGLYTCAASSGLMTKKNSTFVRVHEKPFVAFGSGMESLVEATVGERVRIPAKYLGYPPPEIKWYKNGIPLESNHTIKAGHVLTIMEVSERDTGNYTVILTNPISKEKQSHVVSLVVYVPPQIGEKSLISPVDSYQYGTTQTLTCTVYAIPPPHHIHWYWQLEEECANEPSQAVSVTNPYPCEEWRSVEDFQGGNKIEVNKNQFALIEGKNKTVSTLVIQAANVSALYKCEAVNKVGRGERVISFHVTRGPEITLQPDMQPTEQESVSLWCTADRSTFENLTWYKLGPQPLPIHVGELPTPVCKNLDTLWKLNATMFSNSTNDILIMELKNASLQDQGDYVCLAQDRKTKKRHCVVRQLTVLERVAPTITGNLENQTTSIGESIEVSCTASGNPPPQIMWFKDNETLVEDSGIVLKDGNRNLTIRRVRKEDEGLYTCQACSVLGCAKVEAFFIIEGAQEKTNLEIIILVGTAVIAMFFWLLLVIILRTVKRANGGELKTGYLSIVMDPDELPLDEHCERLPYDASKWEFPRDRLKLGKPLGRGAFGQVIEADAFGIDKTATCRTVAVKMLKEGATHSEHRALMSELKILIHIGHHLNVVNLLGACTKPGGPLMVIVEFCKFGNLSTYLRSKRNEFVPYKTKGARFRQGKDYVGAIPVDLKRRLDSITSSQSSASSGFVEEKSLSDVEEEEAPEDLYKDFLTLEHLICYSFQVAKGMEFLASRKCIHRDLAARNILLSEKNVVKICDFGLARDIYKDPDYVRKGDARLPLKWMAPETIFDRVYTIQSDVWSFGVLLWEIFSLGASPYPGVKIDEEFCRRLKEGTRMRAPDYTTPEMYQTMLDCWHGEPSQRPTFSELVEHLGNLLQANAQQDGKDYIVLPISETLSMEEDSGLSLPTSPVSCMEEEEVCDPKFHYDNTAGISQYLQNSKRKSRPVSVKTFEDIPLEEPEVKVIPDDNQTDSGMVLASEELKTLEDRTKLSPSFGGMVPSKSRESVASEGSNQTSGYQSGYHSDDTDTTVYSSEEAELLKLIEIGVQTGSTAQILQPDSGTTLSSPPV
T1 sequence (P09619 33-1106): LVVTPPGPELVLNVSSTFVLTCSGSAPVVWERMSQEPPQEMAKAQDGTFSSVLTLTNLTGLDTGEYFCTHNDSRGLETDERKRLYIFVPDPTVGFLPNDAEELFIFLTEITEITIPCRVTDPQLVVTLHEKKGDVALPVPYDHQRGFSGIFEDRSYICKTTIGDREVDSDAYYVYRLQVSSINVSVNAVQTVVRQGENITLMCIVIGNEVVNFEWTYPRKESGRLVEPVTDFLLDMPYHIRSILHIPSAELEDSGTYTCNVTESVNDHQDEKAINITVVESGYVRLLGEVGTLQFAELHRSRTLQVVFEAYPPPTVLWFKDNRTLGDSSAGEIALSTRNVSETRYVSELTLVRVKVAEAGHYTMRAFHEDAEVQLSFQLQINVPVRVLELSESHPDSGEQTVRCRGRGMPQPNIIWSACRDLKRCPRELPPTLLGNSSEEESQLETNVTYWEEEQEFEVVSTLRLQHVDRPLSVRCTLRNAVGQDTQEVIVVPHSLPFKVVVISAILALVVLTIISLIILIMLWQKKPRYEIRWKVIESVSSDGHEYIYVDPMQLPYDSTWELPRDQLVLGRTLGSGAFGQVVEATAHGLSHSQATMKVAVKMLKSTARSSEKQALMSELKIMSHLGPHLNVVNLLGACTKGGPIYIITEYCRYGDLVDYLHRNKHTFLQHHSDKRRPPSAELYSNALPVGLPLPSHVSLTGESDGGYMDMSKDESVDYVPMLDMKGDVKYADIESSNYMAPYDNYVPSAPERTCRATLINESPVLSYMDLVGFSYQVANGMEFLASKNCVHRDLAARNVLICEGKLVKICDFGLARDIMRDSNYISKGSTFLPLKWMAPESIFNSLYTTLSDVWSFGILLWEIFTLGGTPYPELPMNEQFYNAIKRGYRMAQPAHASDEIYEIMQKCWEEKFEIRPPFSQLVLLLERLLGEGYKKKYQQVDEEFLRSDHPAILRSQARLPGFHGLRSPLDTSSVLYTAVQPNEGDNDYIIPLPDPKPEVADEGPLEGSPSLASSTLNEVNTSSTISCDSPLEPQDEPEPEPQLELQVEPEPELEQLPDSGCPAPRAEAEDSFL

For `CNC(=O)c1c(C)sc2cc(Oc3ccnc4cc(-c5nccn5C)sc34)ccc12` [Example 1, 2-methyl-6-(2-[1-methyl-1H-imidazol-2-yl]thieno[3,2-b]pyridin-7-yloxy)benzo[b]thiophene-3-carboxylic acid methylamide], the IC50 worked out at 164 nM in assay [1], 122 nM in assay [2], 0.31 nM in assay [3] and 0.68 nM in assay [4].

As to `CNC(=O)c1c(C)sc2cc(Oc3ccnc4cc(C(=O)N5CCC[C@H]5COC)sc34)ccc12` [Example 2, 6-(2-[(S)-2-(methoxymethyl)pyrrolidine-1-carbonyl]thieno[3,2-b]pyridin-7-yloxy)-2-methylbenzo[b]thiophene-3-carboxylic acid methylamide], the IC50 in assay [1] was determined as 912 nM; in assay [2], 3330 nM; in assay [3] it was 1.8 nM; in assay [4] it was 2.3 nM.

For the compound `CNC(=O)c1c(C)sc2cc(Oc3ccnc4cc(C(=O)N5CCC[C@H]5CO)sc34)ccc12` [Example 3], the IC50 came out at 756 nM in assay [1], 942 nM in assay [2], 0.9 nM in assay [3] and 0.442 nM in assay [4].

`CNC(=O)c1c(C)sc2cc(Oc3ccnc4cc(C(=O)N5CC[C@@H](OC)C5)sc34)ccc12` [Example 4, 6-(2-[(R)-3-methoxypyrrolidine-1-carbonyl]thieno[3,2-b]pyridin-7-yloxy)-2-methylbenzo[b]thiophene-3-carboxylic acid methylamide]: the IC50 in assay [1] was determined as 284 nM; in assay [3], 0.47 nM; in assay [4], 0.404 nM.

Regarding `CNC(=O)c1c(C)sc2cc(Oc3ccnc4cc(C(=O)N5CC[C@@H](O)C5)sc34)ccc12` [Example 6, 6-(2-[(R)-3-hydroxypyrrolidine-1-carbonyl]thieno[3,2-b]pyridin-7-yloxy)-2-methylbenzo[b]thiophene-3-carboxylic acid methylamide], the figures for the IC50 in assay [1], in assay [2] and in assay [4] were 255 nM, 145 nM and 1.2 nM, respectively.

For `CNC(=O)c1c(C)oc2cc(Oc3ccnc4cc(C(=O)N5CC[C@@H](OC)C5)sc34)ccc12` [Example 12, 6-(2-[3-methoxypyrrolidine-1-carbonyl]thieno[3,2-b]pyridin-7-yloxy)-2-methylbenzofuran-3-carboxylic acid methylamide], the IC50 in assay [1] is 14.4 nM; in assay [2], 20 nM; in assay [3], 0.14 nM; in assay [4], 0.26 nM.

As for `CNC(=O)c1c(C)oc2cc(Oc3ccnc4cc(-c5nccn5C)sc34)ccc12` [Example 13], the IC50 in assay [1] worked out at 41 nM; in assay [2], 27 nM; in assay [3], 0.21 nM; in assay [4], 0.082 nM.

As to `CNC(=O)c1c(C)n(C)c2cc(Oc3ccnc4cc(-c5nccn5C)sc34)ccc12` [Example 17, 1,2-dimethyl-6-(2-[1-methyl-1H-imidazol-2-yl]thieno[3,2-b]pyridin-7-yloxy)-1H-indole-3-carboxylic acid methylamide], the IC50 is 20 nM in assay [1], 847 nM in assay [2], 0.47 nM in assay [3] and 1.2 nM in assay [4].

As for `CNC(=O)c1c(C)n(C)c2cc(Oc3ccnc4cc(C(=O)N5CC[C@@H](OC)C5)sc34)ccc12` [Example 18, 1,2-dimethyl-6-(2-[3-methoxy-pyrrolidine-1-carbonyl]thieno[3,2-b]pyridin-7-yloxy)-1H-indole-3-carboxylic acid methylamide], the IC50 came out at 32 nM in assay [1], 1000 nM in assay [2], 0.62 nM in assay [3] and 0.64 nM in assay [4].

As to `CNC(=O)c1c(C)n(C)c2cc(Oc3ccnc4cc(C(=O)N5CC[C@@H](O)C5)sc34)ccc12` [Example 19, 1,2-dimethyl-6-(2-[3-hydroxy-pyrrolidine-1-carbonyl]thieno[3,2-b]pyridin-7-yloxy)-1H-indole-3-carboxylic acid methylamide], the half-inhibitory concentration (IC50) in assay [1] stood at 172 nM; in assay [2], 10000 nM; in assay [3] it was 1.7 nM; in assay [4], 2.7 nM.

On to `Cc1c(C(=O)NC2CC2)c2ccc(Oc3ccnc4cc(-c5nccn5C)sc34)cc2n1C` [Example 20, 1,2-Dimethyl-6-[2-(1-methyl-1H-imidazol-2-yl)-thieno[3,2-b]pyridin-7-yloxy]-1H-indole-3-carboxylic acid cyclopropylamide], for which the IC50 in assay [1] was 43 nM; in assay [2], 1900 nM; in assay [3] it was 0.217 nM; in assay [4], 0.19 nM.

With `CCCNC(=O)c1c(C)n(C)c2cc(Oc3ccnc4cc(-c5nccn5C)sc34)ccc12` [Example 61, 1,2-Dimethyl-6-[2-(1-methyl-1H-imidazol-2-yl)thieno[3,2-b]pyridin-7-yloxy]-1H-indole-3-carboxylic acid propylamide], the IC50 turned out to be 17.8 nM in assay [1], 4000 nM in assay [2], 0.4 nM in assay [3] and 0.605 nM in assay [4].

With `CCCCNC(=O)c1c(C)n(C)c2cc(Oc3ccnc4cc(-c5nccs5)sc34)ccc12` [Example 62, 1,2-Dimethyl-6-(2-thiazol-2-yl-thieno[3,2-b]pyridin-7-yloxy)-1H-indole-3-carboxylic acid butylamide], the concentration for half-maximal inhibition (IC50) came out at 18.7 nM in assay [1], 619 nM in assay [2], 0.24 nM in assay [3] and 2.15 nM in assay [4].

One may read the IC50 as the concentration that gives 50% inhibition.
